Measurements from the NIST ThermoML archive (doi:10.1016/j.jct.2009.10.007).
Numbers after ± are expanded uncertainties.

Legend:
[1] = mn = molality of the nth substance listed, in mol/kg; details: 101 kPa, Liquid; for speed of sound: Sing-around technique in a fixed-path interferometer; for mass density: Vibrating tube method
[2] = refractive index (Na D-line) (dimensionless); mn = molality of the nth substance listed, in mol/kg; details: 308.15 K, 101 kPa, Liquid, Standard Abbe refractometry

CCCCn1cc[n+](C)c1.[Br-] [1-butyl-3-methylimidazolium bromide] + O
[1]
Details	mass density, 288.15 K [kg/m3]	mass density, 293.15 K [kg/m3]	mass density, 298.15 K [kg/m3]	mass density, 303.15 K [kg/m3]	mass density, 308.15 K [kg/m3]	speed of sound, 288.15 K [m/s]	speed of sound, 293.15 K [m/s]	speed of sound, 298.15 K [m/s]	speed of sound, 303.15 K [m/s]	speed of sound, 308.15 K [m/s]
m1 = 0.0183	1000.03 ± 0.061	999.121 ± 0.06	997.948 ± 0.06	996.538 ± 0.06	994.913 ± 0.061	1468.7 ± 0.75	1484.7 ± 0.75	1498.8 ± 0.76	1511 ± 0.76	1521.5 ± 0.76
m1 = 0.0274	1000.49 ± 0.061	999.575 ± 0.061	998.397 ± 0.061	996.983 ± 0.061	995.351 ± 0.061	1469.8 ± 0.75	1485.7 ± 0.76	1499.6 ± 0.76	1511.8 ± 0.76	1522.2 ± 0.76
m1 = 0.0367	1000.96 ± 0.061	1000.04 ± 0.06	998.851 ± 0.061	997.432 ± 0.061	995.796 ± 0.061	1471 ± 0.75	1486.7 ± 0.76	1500.5 ± 0.76	1512.6 ± 0.76	1523 ± 0.76
m1 = 0.0459	1001.42 ± 0.061	1000.49 ± 0.062	999.303 ± 0.061	997.878 ± 0.061	996.238 ± 0.061	1472 ± 0.75	1487.7 ± 0.76	1501.5 ± 0.76	1513.4 ± 0.76	1523.7 ± 0.76
m1 = 0.0692	1002.59 ± 0.061	1001.64 ± 0.061	1000.44 ± 0.06	999.002 ± 0.06	997.347 ± 0.061	1474.8 ± 0.76	1490.2 ± 0.76	1503.7 ± 0.76	1515.5 ± 0.76	1525.6 ± 0.77
m1 = 0.0932	1003.78 ± 0.062	1002.82 ± 0.061	1001.6 ± 0.061	1000.15 ± 0.06	998.48 ± 0.06	1477.3 ± 0.76	1492.5 ± 0.76	1505.9 ± 0.76	1517.5 ± 0.76	1527.4 ± 0.77
m1 = 0.1164	1004.92 ± 0.062	1003.94 ± 0.061	1002.71 ± 0.061	1001.24 ± 0.061	999.565 ± 0.06	1480 ± 0.76	1495 ± 0.76	1508.1 ± 0.77	1519.5 ± 0.77	1529.3 ± 0.77
m1 = 0.141	1006.13 ± 0.062	1005.13 ± 0.062	1003.88 ± 0.061	1002.4 ± 0.061	1000.71 ± 0.06	1483 ± 0.76	1497.6 ± 0.77	1510.5 ± 0.77	1521.7 ± 0.77	1531.2 ± 0.77
m1 = 0.1652	1007.3 ± 0.063	1006.29 ± 0.062	1005.02 ± 0.062	1003.53 ± 0.061	1001.83 ± 0.061	1485.6 ± 0.77	1500.1 ± 0.77	1512.7 ± 0.77	1523.7 ± 0.77	1533.1 ± 0.77
m1 = 0.1863	1008.32 ± 0.063	1007.29 ± 0.063	1006.01 ± 0.062	1004.51 ± 0.062	1002.79 ± 0.061	1488 ± 0.77	1502.2 ± 0.77	1514.7 ± 0.77	1525.5 ± 0.77	1534.7 ± 0.78
m1 = 0.2114	1009.53 ± 0.064	1008.48 ± 0.063	1007.19 ± 0.063	1005.67 ± 0.062	1003.94 ± 0.062	1490.8 ± 0.77	1504.8 ± 0.77	1517 ± 0.78	1527.6 ± 0.78	1536.6 ± 0.78
m1 = 0.2376	1010.77 ± 0.065	1009.71 ± 0.064	1008.4 ± 0.063	1006.87 ± 0.063	1005.13 ± 0.062	1493.6 ± 0.77	1507.3 ± 0.78	1519.3 ± 0.78	1529.7 ± 0.78	1538.5 ± 0.78
m1 = 0.2632	1011.99 ± 0.065	1010.91 ± 0.064	1009.58 ± 0.064	1008.03 ± 0.063	1006.28 ± 0.063	1496.4 ± 0.78	1509.8 ± 0.78	1521.7 ± 0.78	1531.8 ± 0.78	1540.4 ± 0.79
m1 = 0.2831	1012.92 ± 0.065	1011.83 ± 0.062	1010.49 ± 0.062	1008.93 ± 0.062	1007.17 ± 0.063	1498.5 ± 0.78	1511.8 ± 0.78	1523.4 ± 0.78	1533.4 ± 0.78	1541.8 ± 0.79

[2]
Details	refractive index
m1 = 0.0096	1.3326 ± 0.0005
m1 = 0.02	1.3343 ± 0.0005
m1 = 0.0298	1.3358 ± 0.0005
m1 = 0.0348	1.3366 ± 0.0005
m1 = 0.0398	1.3375 ± 0.0005
m1 = 0.05	1.339 ± 0.0005
m1 = 0.0548	1.3397 ± 0.0005
m1 = 0.0598	1.3405 ± 0.0005
m1 = 0.0689	1.3419 ± 0.0005
m1 = 0.082	1.3439 ± 0.0005
m1 = 0.0854	1.3444 ± 0.0005
m1 = 0.0896	1.3451 ± 0.0005
m1 = 0.1	1.3466 ± 0.0005
m1 = 0.1192	1.3497 ± 0.0005
